Data as given in paper PMC5980995, “An allostatic mechanism for M2 pyruvate kinase as an amino-acid sensor” (Biochemical Journal, 2018).

What was measured:
[1] = target: T1, M2PYK (Homo sapiens, UniProt P14618); assay: Enzyme kinetics of M2PYK for PEP with saturating ADP in presence of amino acids; type: biochemical; details: kinetic curves at different inhibitor concentrations
T1 construct: and N-terminal domain (blue, residues 13–43. Residues 1–12, as well as additional residues from the His6-tagged construct); made in house; host or cells: Escherichia coli BL21(DE3), pET28a
T1 sequence (P14618 whole entry, the tested form may be a part): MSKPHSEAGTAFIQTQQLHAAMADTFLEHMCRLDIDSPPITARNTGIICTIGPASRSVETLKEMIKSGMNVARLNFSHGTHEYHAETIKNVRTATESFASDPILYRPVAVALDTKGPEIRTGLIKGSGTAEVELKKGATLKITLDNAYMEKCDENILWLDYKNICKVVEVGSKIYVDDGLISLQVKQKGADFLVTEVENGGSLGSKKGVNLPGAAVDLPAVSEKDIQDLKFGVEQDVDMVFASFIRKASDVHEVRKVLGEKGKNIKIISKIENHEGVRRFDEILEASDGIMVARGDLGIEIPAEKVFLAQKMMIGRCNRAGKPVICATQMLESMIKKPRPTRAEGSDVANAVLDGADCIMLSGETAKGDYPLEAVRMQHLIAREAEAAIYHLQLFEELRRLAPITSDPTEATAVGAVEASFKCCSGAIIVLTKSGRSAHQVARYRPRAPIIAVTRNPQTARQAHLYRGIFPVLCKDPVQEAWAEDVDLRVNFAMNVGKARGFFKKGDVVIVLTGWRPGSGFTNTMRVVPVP
Procedure: (§1) For the determination of kinetics of M2PYK in the absence/presence of amino acid modulators, enzymatic activity assays were performed as follows. A 5 µl aliquot of 0.002 mg/ml M2PYK in PBS-CM was incubated with different concentrations of amino acids in PBS-CM supplemented with 1 mM dithiothreitol at 37°C at pH 7.4 for 10 min. Then, the same volume of assay buffer [PBS-CM supplemented with 10 mM MgCl2, 100 mM KCl, 1 mM NADH, 40 µmol/min ml LDH, as well as saturating ADP (4 mM) and titrated substrate PEP (0.15–10 mM)] was added. […] For these uncompetitive inhibitors the Ki values were calculated to be equal to IC50/2.
Values of the kinetic parameters (Vmax, K0.5(PEP), and nH) were determined by fitting the equation below to the data. V=Vmax×[PEP]^nH/K0.5nH+[PEP]^nH The Lineweaver–Burk plots were fit using the equation below: Y=K0.5nH+(1/x)^nH/Vmax×(1/x)^nH The Berkley Madonna software (http://www.berkeleymadonna.com/) was used to model approximate proportions of monomer and tetramer M2PYK at given total protein concentrations. The calculation was based on a simplified tetramer [T] monomer [M] equilibrium: [T]⇌[M]+[M]+[M]+[M]withKd=[M]^4/[T] […] The association rate constant was scaled to give a Kd of 0.9 µM, which was estimated from analytical gel chromatography results.
The kinetic curves are shown in Figure 4 and Supplementary Figure S4.

[2] = target: T1, M2PYK; assay: M2PYK activity at sub-saturating PEP and ADP: amino-acid IC50/Ki and serine versus alanine/phenylalanine competition; type: biochemical; details: for Ki: calculated as IC50/2 (uncompetitive inhibitors), read-out: inhibitor constant (Ki) against M2PYK; for IC50: sub-saturating PEP and ADP, 0 µM serine, read-out: IC50 against M2PYK
Procedure: as §1, with “min.” for “min. Then, the same volume of assay buffer [PBS-CM supplemented with 10 mM MgCl2, 100 mM KCl, 1 mM NADH, 40 µmol/min ml LDH, as well as saturating ADP (4 mM) and titrated substrate PEP (0.15–10 mM)] was added.”
The decrease in absorbance at 340 nm was measured for 5 min at 37°C using a plate reader. […]

[3] = target: T1, M2PYK; assay: Analytical gel chromatography of M2PYK oligomerisation/dissociation; details: 10 mM amino acid; 0.1 mg/ml M2PYK; PBS-CM pH 7.4, room temperature, 12 h
Procedure: Analytical gel chromatography was performed to characterise the oligomerisation/dissociation of M2PYK in the presence/absence of different amino acids. Aliquots of 400 µl of 0.1 mg/ml purified M2PYK were incubated with or without 10 mM amino acids in PBS-CM at room temperature at pH 7.4 overnight. After the incubation, samples were loaded independently onto a Superdex 200 PC 3.2/30 gel-filtration column. Samples of 25 µl were injected, and the column flow rate was maintained at 0.1 ml/min. Protein peaks were monitored using the absorbance at both 280 and 214 nm. The retention volumes for the M2PYK peaks were the same as those identified by SEC-MALS as monomer and tetramer peaks (using the same Superdex 200 column) in our previous study.
Analytical gel chromatography was used to investigate the effects of amino acids on the oligomerisation of M2PYK. […] Dissociation studies of M2PYK using SEC-MALS [13] and ultracentrifugation show the predominant forms in solution are tetramer and monomer.

[4] = target: T1, M2PYK; assay: ELISA with anti-M2PYK antibody binding the C–C interface (monomer–tetramer equilibrium); details: 10 mM amino acid; 0.0039–2.5 µg/ml M2PYK; 1 h, pH 7.4, room temperature
Description: For the production of specific antibodies, a peptide immunogen (Supplementary Figure S1) specific for M2PYK was covalently conjugated with the carrier protein BSA, and injected into Balb/c female mice (6–7 weeks) at 2-week intervals. A mouse showing best selectivity for M2PYK was chosen as a spleen donor. After the production of a hybridoma, a cell line secreting a specific monoclonal antibody was screened and expanded. The specific monoclonal antibody against M2PYK was identified, purified and conjugated with horseradish peroxidase (HRP) for further ELISAs.
A stock solution of anti-His-tag antibody in carbonate buffer (pH 9.6) was coated onto wells at 50 µl/well at 4°C overnight. The wells were then blocked with 100 µl/well of PBS/Tween 20/3% BSA for 1 h at room temperature. Titrated M2PYK (2.5–0.0039 µg/ml) was incubated with or without ligands (10 mM for all amino acids and 1 mM for FBP) in PBS/Tween 20/3% BSA at room temperature for 1 h. Then, 100 µl of the solution was added to each prepared well for an incubation of 1 h. Afterwards, a 100 µl aliquot of PBS/Tween 20/3% BSA containing 4 µg/ml HRP-conjugated M2PYK antibody was added to each well and incubated for 1 h at room temperature. Electrochemiluminescence solution was added at 50 µl/well to develop the luminescence, which was read immediately with a plate reader. Three washes with PBS/Tween 20/3% BSA were performed between each step.
To investigate the effect of ligand binding on monomer–tetramer equilibrium at lower protein concentrations, we developed an ELISA assay. […] As the epitope is hidden in the tetrameric form of M2PYK, antibody binding on the C–C interface of M2PYK reflects the amount of monomer/dimer but not tetramer. The ELISA tests were performed using low concentrations of His6-M1/2PYK (0.0039–2.5 µg/ml) incubated with no ligand or 10 mM of each amino acid for 1 h in PBS-CM at pH 7.4 at room temperature. The incubated solutions were added to 96-well plates precoated with anti-His-tag antibodies. HRP-conjugated M2PYK antibodies were then incubated, followed by luminescence reading.

[5] = target: T1, M2PYK; assay: X-ray co-crystal structures of M2PYK with amino acids; details: wild-type M2PYK co-crystallised with the amino acid
Procedure: Single crystals of M2PYK were obtained at 17°C by vapour diffusion using the hanging-drop technique. The drops were formed by mixing 1.5 µl of wild-type M2PYK (20 mg/ml) solution containing ligands with 1.5 µl of reservoir solution (composed of 11–16% PEG 3350, 100 mM sodium cacodylate, 50 mM MgCl2, and 100 mM KCl). […] The pH for obtaining optimal crystals was 7.2–7.8. Before data collection, crystals were dipped in a freezing solution consisting of reservoir solution supplemented with the same concentration of ligands as in the original solution, as well as up to 35% PEG 3350, which eliminated the appearance of ice rings. Diffraction data were collected at the Diamond synchrotron radiation facility in Oxfordshire, U.K. on beamline I03 (for the M2PYK/Ala structure), I04-1 (for the M2PYK/Phe and the M2PYK/Trp structures), and I24 (for the M2PYK/Ser structure). All datasets were obtained from a single crystal flash-frozen in liquid nitrogen. A more detailed description and discussion of the crystallisation trials is in the Supplementary Material.
All four M2PYK structures were solved by molecular replacement using the program PHASER [40]. A monomer (Chain A) from the previously determined tetrameric structure of M2PYK (in R-state, PDB ID: 4B2D) served as the search model for the M2PYK/Ser structure. Chain A of a different M2PYK structure (in T-state, PDB ID: 4FXJ) was used as the search model for the M2PYK/Phe, M2PYK/Ala, and M2PYK/Trp structures. There were clear molecular replacement solutions for all structures. The resulting models were then subjected to 10 cycles of rigid body refinement using the program REFMAC [41]. Afterwards, manual changes were made to models to adjust side chain conformations and to add additional residues to the N terminus using COOT [42]. The models were then subjected to several rounds of translation libration screw refinement and restrained refinement, and ligand molecules were added where clear unbiased Fo–Fc electron density was observed. Water molecules were added to the model using COOT, and after several rounds of restrained refinement, R/Rfree values converged.

[6] = target: T2, M1PYK (Homo sapiens, UniProt P14618); assay: PYK activity modulator screen (LDH-coupled enzymatic activity assay); type: biochemical; details: 2.5 mM ligand, sub-saturating PEP and ADP; for inhibition of M1PYK activity: pH 7.4, 37°C, relative to no ligand
T2 construct: made in house; host or cells: Escherichia coli BL21(DE3), pET28a
T2 sequence (P14618 1-531 isoform P14618-2): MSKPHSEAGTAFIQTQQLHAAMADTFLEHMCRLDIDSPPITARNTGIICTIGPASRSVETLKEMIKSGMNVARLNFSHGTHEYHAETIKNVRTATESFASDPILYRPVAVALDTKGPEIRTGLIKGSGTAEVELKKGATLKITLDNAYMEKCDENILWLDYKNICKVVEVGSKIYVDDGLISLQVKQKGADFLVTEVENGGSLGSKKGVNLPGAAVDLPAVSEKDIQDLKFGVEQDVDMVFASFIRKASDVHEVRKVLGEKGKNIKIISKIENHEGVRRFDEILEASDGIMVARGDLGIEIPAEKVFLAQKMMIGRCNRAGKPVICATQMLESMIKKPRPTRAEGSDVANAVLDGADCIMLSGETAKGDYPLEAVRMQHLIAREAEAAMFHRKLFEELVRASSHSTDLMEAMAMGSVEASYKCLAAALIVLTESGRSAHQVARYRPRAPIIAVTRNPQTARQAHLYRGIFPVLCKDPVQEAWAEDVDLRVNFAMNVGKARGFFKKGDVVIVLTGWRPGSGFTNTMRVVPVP
Procedure: (§2) For the identification of PYK activity modulators, enzymatic activity assays were performed as follows. A 1.9 µl aliquot of 20 mg/ml M1 or M2PYK in PBS-CM was added individually into […] of different amino acids at 5 mM in PBS-CM at pH 7.4 followed by an incubation at 37°C for 10 min. Then, the same volume of assay buffer [PBS-CM supplemented with 10 mM MgCl2, 100 mM KCl, 1 mM NADH, 40 µmol/min ml lactate dehydrogenase (LDH), as well as sub-saturating substrates PEP (1 mM) and ADP (0.8 mM)] was added into the protein solution and mixed (so the concentrations of all reagents were halved). The decrease in absorbance at 340 nm (the absorbance of NADH) was measured for 5 min at 37°C using a plate reader. PEP, ADP, LDH, NADH, FBP and all amino acids were from Sigma–Aldrich.
(§3) FBP was used as a positive control. The reaction was performed after pre-incubation in the presence of sub-saturating substrates in PBS at pH 7.4 at 37°C as described in Experimental Procedures.

[7] = target: T1, M2PYK; assay: as above; type: biochemical; details: 2.5 mM ligand, sub-saturating PEP and ADP; for activation of M2PYK activity: pH 7.4, 37°C, relative to no ligand
Procedure: as §2, §3

[8] = test system: M1PYK; design: method as in PMID 5166752, PMID 16634623; details: cited from earlier work
[9] = test system: cell proliferation; design: method as in PMID 23530218; details: via activation or inhibition of M2PYK; cited from earlier work
[10] = test system: M2PYK; design: method as in Chaneton et al. 2012; details: 4 nM M2PYK; ref Chaneton et al. 2012; cited from earlier work
[11] = target: T1, M2PYK; design: method as in PMID 23530218; details: previously shown; cited from earlier work

| mode of inhibition of M2PYK [1] | Ki [2] | IC50 [2] | effect on M2PYK oligomerisation (tetramer versus monomer) [3] | oligomeric state of M2PYK at low protein concentration [4] | Conformation of M2PYK tetramer in co-crystal structure [5] | inhibition of M1PYK activity [6] | activation of M2PYK activity [7] | Compound | other results |
| --- | --- | --- | --- | --- | --- | --- | --- | --- | --- |
| allosteric uncompetitive inhibitors | 62 µM | 124 µM | stabilised tetramers over monomers | predominantly tetrameric | T-state |  |  | C[C@H](N)C(=O)O [alanine, L-alanine] | M2PYK activity ([2]; alanine 200–300 µM in the presence of serine ∼0.6 mM): ~65%; M2PYK activity ([2]; alanine 200–300 µM, no serine): ~10% |
|  |  |  |  |  |  | 10% |  | NCC(=O)O [glycine] |  |
|  |  |  |  |  |  |  | ~30% | N[C@@H](Cc1c[nH]cn1)C(=O)O [histidine] | M2PYK activity normalised to activity in absence of ligands (100%) [7]: higher than 120% |
|  |  |  |  |  |  | 10% |  | NCCCC[C@H](N)C(=O)O [lysine] |  |
| allosteric uncompetitive inhibitors | 205 µM | 410 µM | stabilised tetramers over monomers | predominantly tetrameric | T-state | 10% |  | N[C@@H](Cc1ccccc1)C(=O)O [phenylalanine, L-phenylalanine] | M2PYK activity ([2]; phenylalanine at ∼0.2 mM, no serine): ~65%; M2PYK activity ([2]; phenylalanine ∼0.2 mM in the presence of 0.6 mM serine): nearly full activity; regulatory effect on M1PYK enzymatic activity [8]: non-competitive inhibition; effect on cell proliferation [9]: favours cell proliferation |
|  |  |  | stabilised tetramers over monomers | predominantly tetrameric | R-state |  | ~30% | N[C@@H](CO)C(=O)O [serine, L-serine] | M2PYK activity normalised to activity in absence of ligands (100%) [7]: higher than 120%; effect on M2PYK activity in end-point assay [10]: showed activation |
| allosteric uncompetitive inhibitors | 222 µM | 445 µM | stabilised tetramers over monomers | predominantly tetrameric | T-state |  |  | N[C@@H](Cc1c[nH]c2ccccc12)C(=O)O [tryptophan, L-tryptophan] |  |
|  |  |  |  |  |  |  | ~40% | fructose 1,6-bisphosphate [FBP, reference compound] | regulatory effect on M1PYK activity [6]: little or no regulatory effect; effect on M2PYK oligomerisation [11]: stabilised the tetrameric form; effect on M2PYK activity in end-point assay [10]: showed activation; effect on cell proliferation [9]: inhibits cell proliferation |

| Compound | mode of inhibition of M2PYK [1] | Ki [2] | IC50 [2] | effect on M2PYK oligomerisation (tetramer versus monomer) [3] | oligomeric state of M2PYK at low protein concentration [4] | Conformation of M2PYK tetramer in co-crystal structure [5] | inhibition of M1PYK activity [6] | activation of M2PYK activity [7] | other results |
| --- | --- | --- | --- | --- | --- | --- | --- | --- | --- |
| N=C(N)NCCC[C@H](N)C(=O)O [arginine] |  |  |  |  |  |  | 10% |  |  |
